Measurements: patent US10201531B2, “Indazolyl-oxo-isothiazole compounds” (MOCHIDA PHARMACEUTICAL CO., LTD., priority 2015, dated 2019)
pEC50: −log10 of the molar value.

Test system: Nrf2
Test: Evaluation of Nrf2 activation ability (Nrf2d-LacZ / Keap1 HEK293 reporter, Beta-Glo luminescence)
Format: cell-based, human
Conditions: Pharmacological Test Example 1, rated A/B/C
Method: HEK293 cells constantly expressing Nrf2d-LacZ (human Nrf2 degron region fused to LacZ; Hirotsu et al, Genes to Cell, Vol. 16, pp. 406-415 (2011)) and human Keap1 were seeded 7,000 cells/27 μl/well on 384-well plates (Corning 384 Well Flat Clear Bottom White Polystyrene TC-Treated Microplates, Cat. #3707), and cultured overnight at 5% CO2, 37° C. in DMEM medium containing 10% FBS, 100 U/mL penicillin and 100 μg/mL streptomycin. 3 μL/well of a 0.1% DMSO solution of the compound of the invention was added to the cells, which were then cultured for 3 hours at 5% CO2, 37° C. Beta-Glo® reagent (Promega, Beta-Glo Assay System, Cat. #E4740) was added 15 μL/well and incubated for 1 hour at room temperature, and luminescence intensity was measured with a luminometer. Using CDDO-Im as a standard, Nrf2 activation ability was calculated given 100% as the luminescence under stimulus with 100 nM CDDO-Im.

pEC50 | Structure (SMILES)
> 6.00 | Cn1ncc2c(-c3cnn(-c4cc(O)n[s+]4[O-])c3)cccc21 (centres unmarked) [Example 360]
> 6.00 | [O-][s+]1nc(O)cc1-n1cc(C2=Cc3ccccc3CC2)cn1 (centres unmarked) [Example 349]
> 6.00 | COc1cc(-c2ccc(-c3cnn(-c4cc(O)n[s+]4[O-])c3)cn2)ccn1 (centres unmarked) [Example 446]
5.30 to 6.00 | Cc1cccc(C)c1COc1ccc(-c2cnn(-c3cc(O)n[s+]3[O-])c2)cc1 (centres unmarked) [Example 376]
> 6.00 | COc1ncccc1-c1cnn(-c2cc(O)n[s+]2[O-])c1 (centres unmarked) [Example 393]
5.30 to 6.00 | [O-][s+]1nc(O)cc1-n1cc(-c2ccc3cnccc3c2)cn1 (centres unmarked) [Example 356]
5.30 to 6.00 | [O-][s+]1nc(O)cc1-n1cc2cc(-c3cnccn3)ccc2n1 (centres unmarked) [Example 417]
5.30 to 6.00 | [O-][s+]1nc(O)cc1-n1cc(-c2cnccn2)cn1 (centres unmarked) [Example 407]
5.00 to 5.30 | O=C(Cc1ccc(-c2cnn(-c3cc(O)n[s+]3[O-])c2)cc1)N1CCc2ccccc21 (centres unmarked) [Example 373]
5.30 to 6.00 | [O-][s+]1nc(O)cc1-n1cc(-c2cccc3ncccc23)cn1 (centres unmarked) [Example 355]
> 6.00 | [O-][s+]1nc(O)cc1-n1cc(C2=Cc3ccccc3CC2)cn1 (centres unmarked) [Example 381]
5.30 to 6.00 | CN(C)Cc1ccc(-c2cnn(-c3cc(O)n[s+]3[O-])c2)cc1 (centres unmarked) [Example 405]
5.30 to 6.00 | [O-][s+]1nc(O)cc1-n1cc(C2=Cc3ccccc3C2)cn1 (centres unmarked) [Example 394]
> 6.00 | COc1ncccc1-c1ccc(-c2cnn(-c3cc(O)n[s+]3[O-])c2)cn1 (centres unmarked) [Example 447]
5.30 to 6.00 | [O-][s+]1nc(O)cc1-n1cc(-c2ccc3ccncc3c2)cn1 (centres unmarked) [Example 351]
5.30 to 6.00 | [O-][s+]1nc(O)cc1-n1cc(/C=C/c2ccccc2)cn1 (centres unmarked) [Example 318]
5.00 to 5.30 | Cn1c(=O)oc2cc(-c3cnn(-c4cc(O)n[s+]4[O-])c3)ccc21 (centres unmarked) [Example 424]
5.30 to 6.00 | O=S(=O)(c1cccc(COc2ccc(-c3cnn(-c4cc(O)n[s+]4[O-])c3)cc2)c1)N1CCCCC1 (centres unmarked) [Example 366]

Same assay, conditions: rated A/B/C, Pharmacological Test Example 1

Structure (SMILES) | pEC50
Cc1nn(-c2cc(O)n[s+]2[O-])c(C)c1-c1ccccc1 (centres unmarked) [Example 311] | 5.00 to 5.30
[O-][s+]1nc(O)cc1-n1ncc2cc(OCc3ccccc3)ccc21 (centres unmarked) [Example 26] | 5.30 to 6.00
CN1CCOc2cc(-c3ccc4c(c3)c(C#N)nn4-c3cc(O)n[s+]3[O-])cnc21 (centres unmarked) [Example 221] | 5.30 to 6.00
[O-][s+]1nc(O)cc1-n1ncc2ccc(-c3ccc(N4CCCC4)nc3)cc21 (centres unmarked) [Example 106] | 5.30 to 6.00
CN1CCOc2ncc(-c3ccc4c(cnn4-c4cc(O)n[s+]4[O-])c3)cc21 (centres unmarked) [Example 165] | 5.30 to 6.00
[O-][s+]1nc(O)cc1-n1ncc2c1CN(Cc1cnc3ccccc3c1)C2 (centres unmarked) [Example 263] | 5.30 to 6.00
[O-][s+]1nc(O)cc1-n1ncc2ccncc21 (centres unmarked) [Example 231] | 5.00 to 5.30
CC(C)(C)OC(=O)N1CC=C(c2ccc3cnn(-c4cc(O)n[s+]4[O-])c3c2)CC1 (centres unmarked) [Example 104] | 5.30 to 6.00
CC(C)(C)OC(=O)N1CCc2c(c(I)nn2-c2cc(O)n[s+]2[O-])C1 (centres unmarked) [Example 251] | 5.00 to 5.30
N#Cc1ccc(-c2ccc3c(cnn3-c3cc(O)n[s+]3[O-])c2)nc1 (centres unmarked) [Example 108] | 5.30 to 6.00
CN1C(=O)CCc2cc(-c3ccc4c(cnn4-c4cc(O)n[s+]4[O-])c3)cnc21 (centres unmarked) [Example 164] | 5.00 to 5.30
COc1ccncc1-c1ccc2c(cnn2-c2cc(O)n[s+]2[O-])c1 (centres unmarked) [Example 47] | 5.30 to 6.00
[O-][s+]1nc(O)cc1-n1ncc2cc(-c3ccc(F)cn3)ccc21 (centres unmarked) [Example 119] | 5.30 to 6.00
COc1cc(-c2ccnc(N3CCCCC3)c2)c2cnn(-c3cc(O)n[s+]3[O-])c2c1 (centres unmarked) [Example 176] | 5.30 to 6.00
[O-][s+]1nc(O)cc1-n1ncc2nc(-c3ccc(N4CCCCC4)nc3)ccc21 (centres unmarked) [Example 241] | 5.30 to 6.00
COc1cc2c(cnn2-c2cc(O)n[s+]2[O-])cc1Br (centres unmarked) [Example 69] | 5.30 to 6.00
N#Cc1cccc(-c2ccc3c(cnn3-c3cc(O)n[s+]3[O-])c2)n1 (centres unmarked) [Example 120] | 5.30 to 6.00
[O-][s+]1nc(O)cc1-n1ncc2nc(Cl)ccc21 (centres unmarked) [Example 227] | 5.30 to 6.00

Structure (SMILES) | pEC50
[O-][s+]1nc(O)cc1-n1cc(I)cn1 (centres unmarked) [Example 287] | 5.30 to 6.00
[O-][s+]1nc(O)cc1-n1ncc2c(-c3ccc(C4CC4)nc3)cccc21 (centres unmarked) [Example 98] | 5.30 to 6.00
[O-][s+]1nc(O)cc1-n1ncc2ccccc21 (centres unmarked) [Example 1, 5-(indazol-1-yl)-1-oxo-1,2-thiazol-3-ol] | 5.30 to 6.00
[O-][s+]1nc(O)cc1-n1ncc2ccc(-c3ccccc3)cc21 (centres unmarked) [Example 78] | 5.30 to 6.00
Cc1cc2cnn(-c3cc(O)n[s+]3[O-])c2cn1 (centres unmarked) [Example 229] | 5.30 to 6.00
[O-][s+]1nc(O)cc1-n1ncc2c1CCN(Cc1ccccc1)C2 (centres unmarked) [Example 252] | 5.30 to 6.00
[O-][s+]1nc(O)cc1-n1ncc2cccnc21 (centres unmarked) [Example 238] | 5.30 to 6.00
[O-][s+]1nc(O)cc1-n1ncc2c1CCN(CC1CCCCC1)C2 (single isomer, unassigned) [Example 257] | 5.30 to 6.00
Cc1nn(-c2cc(O)n[s+]2[O-])c2ccc(Cl)cc12 (centres unmarked) [Example 15] | 5.30 to 6.00
[O-][s+]1nc(O)cc1-n1cc2c(n1)CN(Cc1cccc(Oc3ccccc3)c1)C2 (centres unmarked) [Example 277] | 5.30 to 6.00
[O-][s+]1nc(O)cc1-n1ncc2cc(-c3cnc(N4CCOCC4)cn3)ccc21 (centres unmarked) [Example 142] | 5.30 to 6.00
COc1cc(Br)c2cnn(-c3cc(O)n[s+]3[O-])c2c1 (centres unmarked) [Example 9] | 5.30 to 6.00
CC(C)(C)OC(=O)N1Cc2cnn(-c3cc(O)n[s+]3[O-])c2C1 (centres unmarked) [Example 245] | 5.30 to 6.00
COc1cc(-c2cccc3c2cnn3-c2cc(O)n[s+]2[O-])ccn1 (centres unmarked) [Example 97] | 5.30 to 6.00
COc1cc(-c2ccc(N3CCCCC3)nc2)c2cnn(-c3cc(O)n[s+]3[O-])c2c1 (centres unmarked) [Example 180] | > 6.00
CC(C)CN1CCOc2cc(-c3ccc4c(cnn4-c4cc(O)n[s+]4[O-])c3)cnc21 (centres unmarked) [Example 160] | > 6.00
Cn1cc(-c2ccc3c(cnn3-c3cc(O)n[s+]3[O-])c2)ccc1=O (centres unmarked) [Example 171] | 5.00 to 5.30

The next lines start with the values.

pEC50 | Structure (SMILES)
> 6.00 | [O-][s+]1nc(O)cc1-n1ncc2cc(C3=CCC(F)(F)CC3)ccc21 (centres unmarked) [Example 39]
> 6.00 | CN1CCc2cc(-c3ccc4c(cnn4-c4cc(O)n[s+]4[O-])c3)cnc21 (centres unmarked) [Example 158]
> 6.00 | [O-][s+]1nc(O)cc1-n1ncc2cc(-c3cnc(N4CCCCC4)cn3)ccc21 (centres unmarked) [Example 140]
> 6.00 | [2H]c1cccc(-c2ccc3c(cnn3-c3cc(O)n[s+]3[O-])c2)n1 (centres unmarked) [Example 89]
> 6.00 | CN1CCOc2cc(-c3ccc4c(cnn4-c4cc(O)n[s+]4[O-])c3)c(C#N)nc21 (centres unmarked) [Example 184]
> 6.00 | [O-][s+]1nc(O)cc1-n1cc(CCc2ccccc2)cn1 (centres unmarked) [Example 307]
> 6.00 | Cc1cc2cnn(-c3cc(O)n[s+]3[O-])c2cc1C (centres unmarked) [Example 18]
> 6.00 | [O-][s+]1nc(O)cc1-n1ncc2cc(-c3ccc(C(F)(F)F)cn3)ccc21 (centres unmarked) [Example 132]
> 6.00 | CN1CCN(c2cc(-c3ccc4c(cnn4-c4cc(O)n[s+]4[O-])c3)ccn2)CC1 (centres unmarked) [Example 53]
> 6.00 | CN1CCOc2cc(-c3ccc4c(cnn4-c4cc(O)n[s+]4[O-])c3)cnc21 (centres unmarked) [Example 5, 5-[5-(4-methyl-2,3-dihydropyrido[3,2-b][1, 4]oxazin-7-yl)indazol-1-yl]-1-oxo-1,2-thiazol-3-ol]
> 6.00 | [O-][s+]1nc(O)cc1-n1cc(C2=CCC(F)(F)CC2)cn1 (centres unmarked) [Example 301]
> 6.00 | [O-][s+]1nc(O)cc1-n1ncc2cc(-c3ccc(N4CCCCC4)nc3)ccc21 (centres unmarked) [Example 90]
> 6.00 | CN1CCN(c2cc(-c3ccc4c(cnn4-c4cc(O)n[s+]4[O-])c3)ccn2)CC1 (centres unmarked) [Example 52]
> 6.00 | CC1(C)COc2cc(-c3ccc4c(cnn4-c4cc(O)n[s+]4[O-])c3)cnc2N1 (centres unmarked) [Example 217]
> 6.00 | [O-][s+]1nc(O)cc1-n1ncc2cc(-c3ccc(N4CCC5(COC5)C4)nc3)ccc21 (centres unmarked) [Example 161]
> 6.00 | COc1cc(-c2cc(OC)c3cnn(-c4cc(O)n[s+]4[O-])c3c2)ccn1 (centres unmarked) [Example 201]
> 6.00 | COc1ccc2cnn(-c3cc(O)n[s+]3[O-])c2c1 (centres unmarked) [Example 55]
> 6.00 | COc1cc(-c2ccc3c(cnn3-c3cc(O)n[s+]3[O-])c2)ccn1 (centres unmarked) [Example 3, 5-[5-(2-methoxypyridin-4-yl)indazol-1-yl]-1-oxo-1,2-thiazol-3-ol]
> 6.00 | CN(C)c1ccc(-c2ccc3c(cnn3-c3cc(O)n[s+]3[O-])c2)cn1 (centres unmarked) [Example 136]
> 6.00 | CN1CCOc2nc(-c3ccc4c(cnn4-c4cc(O)n[s+]4[O-])c3)ccc21 (centres unmarked) [Example 179]
> 6.00 | COc1ncc(-c2ccc3c(cnn3-c3cc(O)n[s+]3[O-])c2)cc1Cl (centres unmarked) [Example 73]
> 6.00 | COCCN1CCOc2cc(-c3ccc4c(cnn4-c4cc(O)n[s+]4[O-])c3)cnc21 (centres unmarked) [Example 172]
> 6.00 | [O-][s+]1nc(O)cc1-n1ncc2cc(C3=CCOCC3)ccc21 (centres unmarked) [Example 42]
> 6.00 | [O-][s+]1nc(O)cc1-n1ncc2cc(-c3ccnc(N4CCOCC4)c3)ccc21 (centres unmarked) [Example 59]
> 6.00 | [O-][s+]1nc(O)cc1-n1ncc2cc(-c3cccc(C(F)F)n3)ccc21 (centres unmarked) [Example 116]
> 6.00 | Cc1cccc(-c2ccc3c(cnn3-c3cc(O)n[s+]3[O-])c2)n1 (centres unmarked) [Example 117]
> 6.00 | CN1C(=O)C(C)(C)Oc2cc(-c3ccc4c(cnn4-c4cc(O)n[s+]4[O-])c3)cnc21 (centres unmarked) [Example 187]
